# Experimental data taken from patent US7141648B2, “Synthesis of cyclosporin analogs” (priority 2001, dated 2006).
# Where two headings read alike, the source gives them in different places.
# Assays:
# [1] = for Area under the curve / Cmax: male rabbits, i.v. 10 mg/kg/day, mean ± SD
# Description: (§1) On Days 1 and 7, blood samples were collected prior to drug administration and at 0.5, 1, 2, 4, 8, 12, 18, and 24 hours post-dose to generate a pharmacokinetic profile. Other evaluated parameters included clinical observations, body weight, food consumption, hematology, clinical chemistry, gross pathology, and histopathological examination of selected tissues/organs.
# Blood samples were analyzed via high performance liquid chromatography coupled with mass spectrometry (LCMS).
# [2] = system: rabbits; assay: toxicokinetic/nephrotoxicity study in the rabbit model, 30 days
# Description: as §1
# [3] = system: hearts transplanted from Wistar Furth rats to Lewis rats; assay: rat heart transplant model; assay type: in vivo
# Source text: If graft dysfunction was noted during the 30-day post-transplantation period, the animal was sacrificed. If the animal survived longer than 30 days post-transplantation, the test and control articles were discontinued and the animal was allowed to continue until graft dysfunction or up to 100 days post-transplantation.
# [4] = system: rats, dogs, and primates; assay: repeated-dose oral toxicity studies; assay type: in vivo
# [5] = system: islets from a CBA/J mouse transplanted into diabetic Balb/c mouse recipients; assay: islet cell allotransplantation mouse model; details: especially apparent at 25 mg/kg/day
# Source text: Blood glucose was monitored daily until the time of graft failure, as defined by a glucose level greater than 17 mmol/L on two consecutive days.
# [6] = system: Male DBA/1 Lac J mice immunized with chick type II collagen; assay: collagen-induced arthritis model in the mouse; assay type: in vivo; details: for negative erosion scores compared to vehicle treatment group: PIP joint
# Description: Male DBA/1 Lac J mice, kept under virus antibody free conditions, were immunized subcutaneously at 8 to 10 weeks of age with 100 microgram of chick type II collagen, emulsified in Freund's complete adjuvant. […] Animals assigned to the treatment protocol (12/group) were dosed starting on the day of disease onset (˜Day 28) until sacrifice on Day 38.
# Evaluated parameters included mortality, serum creatinine, histology, and outcome assessments, such as clinical scoring (visual), hind paw swelling, histological scoring, erosion scoring, and immunohistochemistry.
# Erosion scoring was done in a blinded manner by examining sagittal sections of the proximal interphalangeal (PIP) joint of the middle digit for the presence or absence of erosions (defined as demarcated defects in cartilage or bone filled with inflammatory tissue). This approach allowed for comparisons of the same joint.
# [7] = system: New Zealand White rabbits immunized with ovalbumin; assay: antigen-induced arthritis model in the rabbit; assay type: in vivo
# Description: New Zealand White rabbits, maintained under specific pathogen free conditions, were immunized with 10 mg of ovalbumin in saline emulsified with Freund's complete adjuvant that was given intramuscularly and subcutaneously into several sites in the nape of the neck. Fourteen days later, all animals started receiving 2 daily intra-articular injections of 5 mg ovalbumin and 65 ng of human recombinant transforming growth factor 2 in saline.
# Animals assigned to the treatment protocol (8/group) were dosed starting on the day of disease onset (˜Day 28) until sacrifice on Day 42.
# Evaluated parameters included mortality, body weight, serum creatinine, histology, and outcome assessments such as knee joint swelling, synovial fluid counts, gross postmortem analysis, and histology.
smiles,measurement,setting,value
C=C/C=C/C[C@@H](C)[C@@H](O)[C@H]1C(=O)N[C@@H](CC)C(=O)N(C)CC(=O)N(C)[C@@H](CC(C)C)C(=O)N[C@@H](C(C)C)C(=O)N(C)[C@@H](CC(C)C)C(=O)N[C@@H](C)C(=O)N[C@H](C)C(=O)N(C)[C@@H](CC(C)C)C(=O)N(C)[C@@H](CC(C)C)C(=O)N(C)[C@@H](C(C)C)C(=O)N1C [ISATX247],pharmacokinetic parameters in female rabbits compared with male rabbits,"[1]; female rabbits, 10 mg/kg/day, exception: maximum concentration on Day 7",not significantly different
same,Area under the curve,[1]; Day 1,5659 ± 1309 ng·h/mL
same,Cmax,[1]; Day 1,1915 ± 149 ng/mL
same,Area under the curve,[1]; Day 7,5697 ± 1373 ng·h/mL
same,Cmax,[1]; Day 7,1959 ± 470 ng/mL
same,"examination of organs, female rabbits","[2]; 15 mg/kg, 3 female rabbits that completed the study",No changes
same,"examination of organs, male rabbits","[2]; 15 mg/kg, male rabbits",decrease in spermatogenesis
same,Percent Change in Serum Creatinine Levels Over Baseline,"[2]; male rabbits, 10 mg/kg, Day 15",+1%
same,Percent Change in Serum Creatinine Levels Over Baseline,"[2]; male rabbits, 10 mg/kg, Day 30",+10%
same,Percent Change in Serum Creatinine Levels Over Baseline,"[2]; male rabbits, 15 mg/kg, Day 15",−19%
same,Percent Change in Serum Creatinine Levels Over Baseline,"[2]; male rabbits, 15 mg/kg, Day 30",−11%
same,hematological parameters,[2]; rabbits,No significant changes
same,graft function after discontinuation of dosing,"[3]; 100 days post-transplant (70 days post discontinuation of dosing), a number of animals",still had functioning grafts at 100 days post-transplant
same,increase of survival time over Cyclosporine A,[3]; optimal dose of 1.75 mg/kg/day,approximately 3 fold
same,only toxicological effect noted in all species,[4],diarrhea/loose feces
same,tolerability,[4],well-tolerated
same,toxicity compared to cyclosporine A as the dose level increased,[5],less toxic than cyclosporine A
same,negative erosion scores compared to vehicle treatment group,[6]; 250 μg/mouse i.p. daily,higher negative erosion scores
same,prevention of the development of joint erosions,[6]; 500 μg/mouse,significantly prevent the development of joint erosions
same,negative erosion scores compared to vehicle treatment group,[6]; 500 μg/mouse i.p. daily,significantly higher
same,synovial fluid counts,[7]; prevention protocol,significant reductions
same,synovial histopathological scores compared to vehicle control,"[7]; prevention protocol, after 28 days of therapy, s.c.",significant decrease
same,potency compared to cyclosporine A in treatment and prevention of arthritis,"[7]; rabbit, in vivo",equivalent or potentially more potent than cyclosporine A
same,macroscopic arthritis score,[7]; treatment protocol,significant reduction
same,synovial histopathological scores of animals with established arthritis compared to vehicle controls,"[7]; treatment protocol, 14 days of treatment",Significant amelioration
